“And” between values parts separate entries of the source, which are not always exact repeats. Equal entries are not always repeated.
Test system: MCF7 complex spheroid growth, % test/control
Assay: Anticancer human tumor MCF7 cell line growth inhibition [Asc];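 also: spheroids exposed to compounds for 7 days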;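 as to viability, T/C: 100% = DMSO vehicle control wells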
Conditions: for viability, T/C: stronger effect = lower value
Outline: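 Complex solid-tumor spheroids incorporating human endothelial and mesenchymal stem cells received single agents or combinations over half-log dilution ranges anchored to clinical Cmax.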

[1] = curve of first compound, second compound 0.0316 µM
[2] = curve of first compound, second compound 0.1 µM
[3] = curve of first compound, second compound 0.316 µM
[4] = curve of first compound, second compound 1 µM
[5] = curve of first compound, second compound 3.16 µM
[6] = curve of first compound, second compound 10 µM
[7] = second compound 0.0316 µM, first compound 0.0316 µM
[8] = second compound 0.0316 µM, first compound 0.1 µM
[9] = second compound 0.0316 µM, first compound 0.316 µM
[10] = second compound 0.0316 µM, first compound 1 µM
[11] = second compound 0.1 µM, first compound 0.0316 µM
[12] = second compound 0.1 µM, first compound 0.1 µM
[13] = second compound 0.1 µM, first compound 0.316 µM
[14] = second compound 0.1 µM, first compound 1 µM
[15] = second compound 0.316 µM, first compound 0.0316 µM
[16] = second compound 0.316 µM, first compound 0.1 µM
[17] = second compound 0.316 µM, first compound 0.316 µM
[18] = second compound 0.316 µM, first compound 1 µM
[19] = second compound 1 µM, first compound 0.0316 µM
[20] = second compound 1 µM, first compound 0.1 µM
[21] = second compound 1 µM, first compound 0.316 µM
[22] = second compound 1 µM, first compound 1 µM
[23] = second compound 3.16 µM, first compound 0.0316 µM
[24] = second compound 3.16 µM, first compound 0.1 µM
[25] = second compound 3.16 µM, first compound 0.316 µM
[26] = second compound 3.16 µM, first compound 1 µM
[27] = second compound 10 µM, first compound 0.0316 µM
[28] = second compound 10 µM, first compound 0.1 µM
[29] = second compound 10 µM, first compound 0.316 µM
[30] = second compound 10 µM, first compound 1 µM
[31] = second compound 0.0316 µM, first compound 3.16 µM
[32] = second compound 0.0316 µM, first compound 10 µM
[33] = second compound 0.1 µM, first compound 3.16 µM
[34] = second compound 0.1 µM, first compound 10 µM
[35] = second compound 0.316 µM, first compound 3.16 µM
[36] = second compound 0.316 µM, first compound 10 µM
[37] = second compound 1 µM, first compound 3.16 µM
[38] = second compound 1 µM, first compound 10 µM
[39] = second compound 3.16 µM, first compound 3.16 µM
[40] = second compound 3.16 µM, first compound 10 µM
[41] = second compound 10 µM, first compound 3.16 µM
[42] = second compound 10 µM, first compound 10 µM

SMILES: COc1c(OCCCN2CCOCC2)ccc2c3n(c(=NC(=O)c4cnc(N)nc4)nc12)CCN3 + Cc1c(S(C)(=O)=O)c(-c2cc(F)cc(N3CCN(c4ccc(NS(=O)(=O)c5ccc(NC(CCN6CCC(C(=O)OCCCP(=O)(O)O)CC6)CSc6ccccc6)c(S(=O)(=O)C(F)(F)F)c5)cc4)CC3)c2)c(-c2ccc(Cl)cc2)n1C(C)C
- IC50 [1]: 0.0319 µM
- IC50 [2]: 0.038 µM
- IC50 [3]: 0.04 µM
- IC50 [4]: 0.0328 µM
- IC50 [5]: 0.033 µM
- IC50 [6]: 0.0763 µM
- viability, T/C (second compound 0.0316 µM, first compound 0.00316 µM): 89.8%
- viability, T/C (second compound 0.0316 µM, first compound 0.01 µM): 73%
- viability, T/C [7]: 48.7%
- viability, T/C [8]: 33%
- viability, T/C [9]: 12%
- viability, T/C [10]: 11.4%
- viability, T/C (second compound 0.1 µM, first compound 0.00316 µM): 77.6%
- viability, T/C (second compound 0.1 µM, first compound 0.01 µM): 69%
- viability, T/C [11]: 53.1%
- viability, T/C [12]: 33.2%
- viability, T/C [13]: 11.2%
- viability, T/C [14]: 9.98%
- viability, T/C (second compound 0.316 µM, first compound 0.00316 µM): 72.9%
- viability, T/C (second compound 0.316 µM, first compound 0.01 µM): 72.2%
- viability, T/C [15]: 53.9%
- viability, T/C [16]: 30.3%
- viability, T/C [17]: 10.3%
- viability, T/C [18]: 11.9%
- viability, T/C (second compound 1 µM, first compound 0.00316 µM): 73.6%
- viability, T/C (second compound 1 µM, first compound 0.01 µM): 68%
- viability, T/C [19]: 50.5%
- viability, T/C [20]: 27.4%
- viability, T/C [21]: 12.9%
- viability, T/C [22]: 13.1%
- viability, T/C (second compound 3.16 µM, first compound 0.00316 µM): 76.5%
- viability, T/C (second compound 3.16 µM, first compound 0.01 µM): 64.6%
- viability, T/C [23]: 52.2%
- viability, T/C [24]: 30.4%
- viability, T/C [25]: 11.8%
- viability, T/C [26]: 13.4%
- viability, T/C (second compound 10 µM, first compound 0.00316 µM): 171%
- viability, T/C (second compound 10 µM, first compound 0.01 µM): 164%
- viability, T/C [27]: 103%
- viability, T/C [28]: 34.7%
- viability, T/C [29]: 14.6%
- viability, T/C [30]: 11.9%

SMILES: Cc1c(S(C)(=O)=O)c(-c2cc(F)cc(N3CCN(c4ccc(NS(=O)(=O)c5ccc(NC(CCN6CCC(C(=O)OCCCP(=O)(O)O)CC6)CSc6ccccc6)c(S(=O)(=O)C(F)(F)F)c5)cc4)CC3)c2)c(-c2ccc(Cl)cc2)n1C(C)C (stereo unspecified)
- viability, T/C (compound 0.0316 µM): 90.5% [middle of 7 runs]
- viability, T/C (compound 10 µM): 166% [middle of 7 runs]
- IC50 (compound alone, run of 11/07/2022): > 10 µM

SMILES: O=C(c1ccc(F)c(F)c1Nc1ccc(I)cc1F)N1CC(O)([C@@H]2CCCCN2)C1
- viability, T/C (compound 0.00316 µM): 104% and 101% and 102%
- viability, T/C (compound 0.01 µM): 92.1% and 89.8% and 79.8%
- viability, T/C (compound 0.0316 µM): 100% and 92.2% and 90.3%
- viability, T/C (compound 0.1 µM): 99% and 111% and 102%
- viability, T/C (compound 0.316 µM): 91.3% and 97.2% and 97.5%
- viability, T/C (compound 1 µM): 86.5% and 89.6% and 87.4%
- IC50 (curve of compound): > 1 µM

SMILES: C=C(F)C(=O)N1CCN(c2nc(OCC3CCCN3C)nc3c2CCN(c2cccc4cccc(Cl)c24)C3)CC1CC#N (stereo unspecified) + Cc1c(S(C)(=O)=O)c(-c2cc(F)cc(N3CCN(c4ccc(NS(=O)(=O)c5ccc(NC(CCN6CCC(C(=O)OCCCP(=O)(O)O)CC6)CSc6ccccc6)c(S(=O)(=O)C(F)(F)F)c5)cc4)CC3)c2)c(-c2ccc(Cl)cc2)n1C(C)C
- IC50 [1]: 3.44 µM
- IC50 [2]: 4.54 µM
- IC50 [3]: 3 µM
- IC50 [4]: 3.92 µM
- IC50 [5]: 3.29 µM
- IC50 [6]: 4.23 µM
- viability, T/C [7]: 105%
- viability, T/C [8]: 108%
- viability, T/C [9]: 87.6%
- viability, T/C [10]: 75.2%
- viability, T/C [31]: 60.7%
- viability, T/C [32]: 0.25%
- viability, T/C [11]: 107%
- viability, T/C [12]: 90.5%
- viability, T/C [13]: 97.3%
- viability, T/C [14]: 95.8%
- viability, T/C [33]: 72.7%
- viability, T/C [34]: 0.14%
- viability, T/C [15]: 103%
- viability, T/C [16]: 88.8%
- viability, T/C [17]: 86.8%
- viability, T/C [18]: 87%
- viability, T/C [35]: 48%
- viability, T/C [36]: 0.13%
- viability, T/C [19]: 96.3%
- viability, T/C [20]: 82.6%
- viability, T/C [21]: 87.1%
- viability, T/C [22]: 81.5%
- viability, T/C [37]: 61.8%
- viability, T/C [38]: 0.17%
- viability, T/C [23]: 97.9%
- viability, T/C [24]: 86%
- viability, T/C [25]: 84.2%
- viability, T/C [26]: 81.7%
- viability, T/C [39]: 50.8%
- viability, T/C [40]: 0.17%
- viability, T/C [27]: 200%
- viability, T/C [28]: 167%
- viability, T/C [29]: 231%
- viability, T/C [30]: 223%
- viability, T/C [41]: 66.7%
- viability, T/C [42]: 0.3%

SMILES: C=CC(=O)N1CCN(c2nc(=O)n(-c3c(C)ccnc3C(C)C)c3nc(-c4c(O)cccc4F)c(F)cc23)C(C)C1 (stereo unspecified) + Cc1c(S(C)(=O)=O)c(-c2cc(F)cc(N3CCN(c4ccc(NS(=O)(=O)c5ccc(NC(CCN6CCC(C(=O)OCCCP(=O)(O)O)CC6)CSc6ccccc6)c(S(=O)(=O)C(F)(F)F)c5)cc4)CC3)c2)c(-c2ccc(Cl)cc2)n1C(C)C
- IC50 [1]: > 10 µM
- IC50 [2]: > 10 µM
- IC50 [3]: > 10 µM
- IC50 [4]: > 10 µM
- IC50 [5]: > 10 µM
- IC50 [6]: > 10 µM
- viability, T/C [7]: 101%
- viability, T/C [8]: 105%
- viability, T/C [9]: 99.7%
- viability, T/C [10]: 95.5%
- viability, T/C [31]: 112%
- viability, T/C [32]: 85.8%
- viability, T/C [11]: 92.9%
- viability, T/C [12]: 89.6%
- viability, T/C [13]: 89%
- viability, T/C [14]: 110%
- viability, T/C [33]: 92.3%
- viability, T/C [34]: 87.4%
- viability, T/C [15]: 101%
- viability, T/C [16]: 92.7%
- viability, T/C [17]: 109%
- viability, T/C [18]: 90.1%
- viability, T/C [35]: 89.5%
- viability, T/C [36]: 81.3%
- viability, T/C [19]: 87.2%
- viability, T/C [20]: 91.4%
- viability, T/C [21]: 102%
- viability, T/C [22]: 97.4%
- viability, T/C [37]: 101%
- viability, T/C [38]: 89.9%
- viability, T/C [23]: 92.9%
- viability, T/C [24]: 94.9%
- viability, T/C [25]: 103%
- viability, T/C [26]: 94.1%
- viability, T/C [39]: 89.5%
- viability, T/C [40]: 86.1%
- viability, T/C [27]: 222%
- viability, T/C [28]: 143%
- viability, T/C [29]: 171%
- viability, T/C [30]: 195%
- viability, T/C [41]: 233%
- viability, T/C [42]: 168%

Reference: PubChem BioAssay AID1963445 (Molecular Pharmacology Branch, DTP, NCI, 2024)
